Test results from the supplement of paper PMC10307832.

Tests used:
Experiment in all cases: relative viability (nuclei count vs DMSO), 5 days (fraction); higher = more cells survive
NCI-H596 = system: NCI-H596
Outline: (§1)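 Lung cancer cell lines in 1536-well plates were dosed by pin tool the day after seeding, either with one drug alone or with a fixed anchor-drug dose plus five library-drug doses (not always all listed) in √10 steps. After 5 days, cells were fixed and their nuclei stained in one step (final 0.05% Triton X-100, 1% formaldehyde, 1 ug/ml Hoechst), then counted on 4× images. Relative viability is the nuclei count in treated wells divided by that in vehicle wells. Values are medians of duplicate plates.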

A549 = system: A549
Outline: as §1

EBC-1 = system: EBC-1
Outline: as §1

IA-LM = system: IA-LM
Outline: as §1

NCI-H1703 = system: NCI-H1703
Outline: as §1

SK-LU-1 = system: SK-LU-1
Outline: as §1

PC-14 = system: PC-14
Outline: as §1

NCI-H1299 = system: NCI-H1299
Outline: as §1

NCI-H1944 = system: NCI-H1944
Outline: as §1

NCI-H1666 = system: NCI-H1666
Outline: as §1

NCI-H661 = system: NCI-H661
Outline: as §1

Calu-6 = system: Calu-6
Outline: as §1

NCI-H1623 = system: NCI-H1623
Outline: as §1

CCNC(=O)c1noc(-c2cc(C(C)C)c(O)cc2O)c1-c1ccc(CN2CCOCC2)cc1 [Luminespib] + COc1cc2c(Oc3ccc(NC(=O)C4(C(=O)Nc5ccc(F)cc5)CC4)cc3F)ccnc2cc1OCCCN1CCOCC1 [Foretinib] (partner 0.25 µM)
relative viability (NCI-H596; first compound 0.002 µM): 0.868 | relative viability (NCI-H596; first compound 0.006325 µM): 0.78 | relative viability (NCI-H596; first compound 0.02 µM): 0.695 | relative viability (NCI-H596; first compound 0.06325 µM): 0.787 | relative viability (NCI-H596; first compound 0.2 µM): 0.783 | relative viability (A549; first compound 0.002 µM): 1.04 | relative viability (A549; first compound 0.006325 µM): 0.842 | relative viability (A549; first compound 0.02 µM): 1.09 | relative viability (A549; first compound 0.06325 µM): 0.138 | relative viability (A549; first compound 0.2 µM): 0.0269 | relative viability (EBC-1; first compound 0.002 µM): 0.0894 | relative viability (EBC-1; first compound 0.006325 µM): 0.116 | relative viability (EBC-1; first compound 0.02 µM): 0.113 | relative viability (EBC-1; first compound 0.06325 µM): 0.0992 | relative viability (EBC-1; first compound 0.2 µM): 0.104 | relative viability (IA-LM; first compound 0.002 µM): 1.07 | relative viability (IA-LM; first compound 0.006325 µM): 1.13 | relative viability (IA-LM; first compound 0.02 µM): 1.23 | relative viability (IA-LM; first compound 0.06325 µM): 0.0645 | relative viability (IA-LM; first compound 0.2 µM): 0.0409 | relative viability (NCI-H1703; first compound 0.002 µM): 0.332 | relative viability (NCI-H1703; first compound 0.006325 µM): 0.348 | relative viability (NCI-H1703; first compound 0.02 µM): 0.396 | relative viability (NCI-H1703; first compound 0.06325 µM): 0.21 | relative viability (NCI-H1703; first compound 0.2 µM): 0.222 | relative viability (SK-LU-1; first compound 0.002 µM): 0.825 | relative viability (SK-LU-1; first compound 0.006325 µM): 0.559 | relative viability (SK-LU-1; first compound 0.02 µM): 0.392 | relative viability (SK-LU-1; first compound 0.06325 µM): 0.131 | relative viability (SK-LU-1; first compound 0.2 µM): 0.133 | relative viability (PC-14; first compound 0.002 µM): 0.967 | relative viability (PC-14; first compound 0.006325 µM): 0.882 | relative viability (PC-14; first compound 0.02 µM): 0.945 | relative viability (PC-14; first compound 0.06325 µM): 0.567 | relative viability (PC-14; first compound 0.2 µM): 0.125 | relative viability (NCI-H1299; first compound 0.002 µM): 1.08 | relative viability (NCI-H1299; first compound 0.006325 µM): 0.989 | relative viability (NCI-H1299; first compound 0.02 µM): 1.09 | relative viability (NCI-H1299; first compound 0.06325 µM): 1.07 | relative viability (NCI-H1299; first compound 0.2 µM): 0.191 | relative viability (NCI-H1944; first compound 0.002 µM): 0.937 | relative viability (NCI-H1944; first compound 0.006325 µM): 0.884 | relative viability (NCI-H1944; first compound 0.02 µM): 0.653 | relative viability (NCI-H1944; first compound 0.06325 µM): 0.767 | relative viability (NCI-H1944; first compound 0.2 µM): 0.419 | relative viability (NCI-H1666; first compound 0.002 µM): 0.988 | relative viability (NCI-H1666; first compound 0.006325 µM): 0.904 | relative viability (NCI-H1666; first compound 0.02 µM): 0.986 | relative viability (NCI-H1666; first compound 0.06325 µM): 0.94 | relative viability (NCI-H1666; first compound 0.2 µM): 0.967 | relative viability (NCI-H661; first compound 0.002 µM): 1.11 | relative viability (NCI-H661; first compound 0.006325 µM): 0.992 | relative viability (NCI-H661; first compound 0.02 µM): 0.922 | relative viability (NCI-H661; first compound 0.06325 µM): 0.597 | relative viability (NCI-H661; first compound 0.2 µM): 0.301 | relative viability (Calu-6; first compound 0.002 µM): 0.888 | relative viability (Calu-6; first compound 0.006325 µM): 0.889 | relative viability (Calu-6; first compound 0.02 µM): 1.03 | relative viability (Calu-6; first compound 0.06325 µM): 0.0858 | relative viability (Calu-6; first compound 0.2 µM): 0.086 | relative viability (NCI-H1623; first compound 0.002 µM): 0.885 | relative viability (NCI-H1623; first compound 0.006325 µM): 0.783 | relative viability (NCI-H1623; first compound 0.02 µM): 0.67 | relative viability (NCI-H1623; first compound 0.06325 µM): 0.673 | relative viability (NCI-H1623; first compound 0.2 µM): 0.375

CCNC(=O)c1noc(-c2cc(C(C)C)c(O)cc2O)c1-c1ccc(CN2CCOCC2)cc1 [Luminespib] + N=C(N)NC(=N)NCCc1ccccc1 [Phenformin] (partner 250 µM)
relative viability (NCI-H596; first compound 0.002 µM): 0.648 | relative viability (NCI-H596; first compound 0.006325 µM): 0.621 | relative viability (NCI-H596; first compound 0.02 µM): 0.588 | relative viability (NCI-H596; first compound 0.06325 µM): 0.61 | relative viability (NCI-H596; first compound 0.2 µM): 0.58 | relative viability (A549; first compound 0.002 µM): 0.166 | relative viability (A549; first compound 0.006325 µM): 0.132 | relative viability (A549; first compound 0.02 µM): 0.0856 | relative viability (A549; first compound 0.06325 µM): 0.0194 | relative viability (A549; first compound 0.2 µM): 0.0225 | relative viability (SK-LU-1; first compound 0.002 µM): 0.53 | relative viability (SK-LU-1; first compound 0.006325 µM): 0.411 | relative viability (SK-LU-1; first compound 0.02 µM): 0.192 | relative viability (SK-LU-1; first compound 0.06325 µM): 0.0958 | relative viability (SK-LU-1; first compound 0.2 µM): 0.0878 | relative viability (PC-14; first compound 0.002 µM): 0.618 | relative viability (PC-14; first compound 0.006325 µM): 0.393 | relative viability (PC-14; first compound 0.02 µM): 0.196 | relative viability (PC-14; first compound 0.06325 µM): 0.0634 | relative viability (PC-14; first compound 0.2 µM): 0.0788 | relative viability (NCI-H1944; first compound 0.002 µM): 0.219 | relative viability (NCI-H1944; first compound 0.006325 µM): 0.189 | relative viability (NCI-H1944; first compound 0.02 µM): 0.205 | relative viability (NCI-H1944; first compound 0.06325 µM): 0.112 | relative viability (NCI-H1944; first compound 0.2 µM): 0.111 | relative viability (NCI-H1666; first compound 0.002 µM): 0.583 | relative viability (NCI-H1666; first compound 0.006325 µM): 0.533 | relative viability (NCI-H1666; first compound 0.02 µM): 0.574 | relative viability (NCI-H1666; first compound 0.06325 µM): 0.532 | relative viability (NCI-H1666; first compound 0.2 µM): 0.538 | relative viability (NCI-H661; first compound 0.002 µM): 0.262 | relative viability (NCI-H661; first compound 0.006325 µM): 0.279 | relative viability (NCI-H661; first compound 0.02 µM): 0.27 | relative viability (NCI-H661; first compound 0.06325 µM): 0.241 | relative viability (NCI-H661; first compound 0.2 µM): 0.191 | relative viability (NCI-H1623; first compound 0.002 µM): 0.55 | relative viability (NCI-H1623; first compound 0.006325 µM): 0.536 | relative viability (NCI-H1623; first compound 0.02 µM): 0.493 | relative viability (NCI-H1623; first compound 0.06325 µM): 0.407 | relative viability (NCI-H1623; first compound 0.2 µM): 0.307
